Read-outs that look alike come from different tables or passages of the source.
Legend:
[1] = cited from earlier work
NMDA receptor = conditions: Ebert et al (1997); cited from earlier work
[2] = Single dose crossover study in healthy volunteers, pharmacokinetics; conditions: both, human, plasma; for AUC(0-inf): AUC0-inf; for AUC(0-inf) / AUC(0-t) / Cmax: geometric mean; for AUC(0-t): AUC0-t; for Cmax: 15 subjects; for half-life: t1/2, geometric mean; for Tmax: median
Description: A randomized, open-label 4-way crossover study in 16 healthy male and female subjects was held wherein said subjects were placed in a randomly assigned order and administered esketamine. Each subject was assigned to 1 of 4 treatment sequences according to a randomization code such that 4 subjects were assigned to each treatment sequence. There was a wash-out period of at least 7 days between dosing periods with doses consisting of either oral or intravenous esketamine hydrochloride. The study consisted of an eligibility screening period of 28 days, 4 study periods involving administration of a single dose of esketamine hydrochloride followed by safety assessments with blood sampling for PK purposes up to 72 hours after study drug administration, discharge at 72 hours after study drug administration and a follow-up visit 7-14 days after the last PK blood sample was taken on Day 4.

male Sprague Dawley rats = assay: 7-day forced swim test; format: in vivo, rat; conditions: for decrease in immobility time: 7 daily doses, test 30 min after dosing
Experimental: Groups of, 6-7 week old, male Sprague Dawley rats were administered esketamine by intraperitoneal injection and their behavioral despair assessed by a forced swim test. The animals, in cohorts of 10, were administered either a single dose of 15mg/kg esketamine, 7 daily doses of either 7.5 or 15 mg/kg esketamine or a vehicle control, and the test performed 30 minutes after dosing. Statistical evaluation was performed using an ordinary One-Way ANOVA, t Test and an Uncorrected Fisher's LSD comparisons test.

Sprague Dawley rats = assay: Repeated dose 28 day toxicity study; format: in vivo, rat; conditions: 28 days oral gavage
Experimental: The objective of the study was to assess the potential toxicity, neurobehavioral effects, and toxicokinetics (TK) of esketamine when administered orally, via gavage, to Sprague Dawley rats for 28 days and to evaluate recovery during a 14-day drug-free period. Fifty male and 50 female rats were randomized into 4 groups (15/sex/Groups 1 and 4; 10/sex/Groups 2 and 3). Esketamine was administered via oral gavage once daily for 28 consecutive days to males at 0 (vehicle control), 6, 10 or 30 mg/kg/day and females at 0 (vehicle control), 2, 10 or 20 mg/kg/day in a dose volume of 10 mL/kg. Animals were observed until euthanized and necropsied on Day 29 (10/sex/group) or 43 (5/sex from Groups 1 and 4). Toxicity was evaluated based on mortality, clinical observations, body weights, food consumption, ophthalmology, motor activity, functional observational battery, clinical pathology (clinical chemistry, hematology, coagulation and urinalysis), organ weights, anatomic (macroscopic or microscopic) pathology. Toxicokinetic animals (3/sex/Group 1; 6/sex/Groups 2, 3, and 4) were similarly dosed and bled on Day 1 and during Week 4 for toxicokinetic analysis.

[3] = tested on: human peripheral blood lymphocytes (HPBL); conditions: for structural or numerical (polyploid or endoreduplicated cells) aberrations: non-activated 4 and 20-hour exposure, 60, 120, 238 μg/mL
Experimental: The clastogenic potential of esketamine was evaluated in the in vitro mammalian chromosome aberration test using human peripheral blood lymphocytes (HPBL) in both the absence and presence of an induced metabolic activation system (the 9000 g supernatant [S9] microsomal fraction of liver homogenate from rats exposed to Aroclor-1254).
The study was conducted in 2 phases, with a preliminary toxicity test used to determine the appropriate concentrations for the definitive chromosomal aberration assay. Water was used as a negative (vehicle) control. Toxicity (defined as >45% reduction in MI relative to the vehicle control) was evaluated at 9 concentrations, ranging from 0.0238 to 238 μg/ml, after exposure of HPBL to esketamine for 20 hours in the absence of S9 activation, or for 4 hours, either in the presence or absence of S9 activation, followed by a 16-hour recovery period.
The definitive chromosome aberration assay evaluated HPBL cells after exposure to esketamine for 20 hours in the absence of S9 activation, or for 4 hours, either in the presence of absence of S9 activation, followed by a 16-hour recovery. Positive controls for chromosomal aberrations in non-activated and S9-activated evaluations, respectively, consisted of mitomycin C (MMC, 0.6 and 0.3 μg/mL for the 4- and 20-hour exposures, respectively) and cyclophosphamide (CP, 2.5, 5, and 7.5 μg/mL). […] Initially, the doses selected for evaluation of chromosomal aberrations were 60, 120, and 238 μg/mL for the non-activated 4- and 20-hour treatment conditions; and 30, 60, and 200 μg/mL for the S9-activated 4-hour treatment condition.

[4] = iv, 0.3 mg/kg, plasma analyte after single dose esketamine 0.3 mg/kg iv
[5] = po, 20 mg, plasma analyte after single dose esketamine 20 mg oral solution
[6] = po, 20 mg, plasma analyte after single dose esketamine 20 mg oral tablet
[7] = po, 100 mg, plasma analyte after single dose esketamine 100 mg oral tablet

Compound: CN[C@]1(c2ccccc2Cl)CCCCC1=O [esketamine, (2S)-2-(2-Chlorophenyl)-2-(methylamino) cyclohexanone]
- oral bioavailability ([1]; Fanta et al (2015)): 8%
- oral bioavailability ([1]; Peltoniemi et al (2012)): 11%
- affinity for the NMDA receptor relative to (R)-ketamine (NMDA receptor): 5 times
- AUC(0-inf) [2, 4]: 257 ng·h/mL
- AUC(0-t) [2, 4]: 249 ng·h/mL
- Cmax [2, 4]: 94.5 ng/mL
- half-life [2, 4]: 10.2 h
- Tmax [2, 4]: 1 h
- AUC(0-inf) [2, 5]: 25.8 ng·h/mL
- AUC(0-inf) [2, 6]: 22.5 ng·h/mL
- AUC(0-t) [2, 5]: 23.4 ng·h/mL
- AUC(0-t) [2, 6]: 20.1 ng·h/mL
- Cmax [2, 5]: 16.5 ng/mL
- Cmax [2, 6]: 11.9 ng/mL
- half-life [2, 5]: 2.91 h
- half-life [2, 6]: 2.84 h
- Tmax [2, 5]: 0.5 h
- Tmax [2, 6]: 0.75 h
- AUC(0-inf) [2, 7]: 181 ng·h/mL
- AUC(0-t) [2, 7]: 173 ng·h/mL
- Cmax [2, 7]: 65.3 ng/mL
- half-life [2, 7]: 7.66 h
- Tmax [2, 7]: 0.75 h
- decrease in immobility time (male Sprague Dawley rats; 7.5 mg/kg ip): 40%
- decrease in immobility time (male Sprague Dawley rats; 15 mg/kg ip): 60%
- extent of effect on immobility time (male Sprague Dawley rats; 15 mg/kg ip, single acute dose): 42 % of control
- antidepressant-like effect, continuous 7-day treatment vs single dose (male Sprague Dawley rats; same dose levels): stronger antidepressant-like effect than a single acute dose
- effects on clinical signs, body weights, food consumption, ophthalmology, motor activity, functional observational battery, clinical pathology or anatomic pathology (Sprague Dawley rats): no esketamine -related effects
- mortality (Sprague Dawley rats; males 6, 10, 30, females 2, 10, 20 mg/kg/day): no mortality
- Cochran-Armitage test, structural aberrations [3]: positive for a dose response
- Toxicity (>45% reduction in MI relative to vehicle control), preliminary toxicity test [3]: not observed at any dose
- induction of structural chromosomal aberrations [3]: positive
- doses at which cytotoxicity was observed ([3]; human): > 200 µg/mL
- cytotoxicity (>45% reduction in mitotic index), chromosomal aberration assay ([3]; non-activated 4- and 20-hour treatment): not observed at any esketamine dose
- structural or numerical (polyploid or endoreduplicated cells) aberrations [3]: no significant or dose-dependent increases
- structural or numerical (polyploid or endoreduplicated cells) aberrations ([3]; listed as Esketamine): negative

Source: US20210196654A1, “METHOD OF TREATING CONDITIONS” (Clexio Biosciences Ltd., priority 2019, published 2021)
